Measured values published in EPA's ToxValDB 9.5 (doi:10.2903/j.efsa.2008.169r).
Values after ≈ are worked out from the molar mass of the structure shown.

Tests used:
Aphidius rhopalosiphi = test: LR50; higher = less toxic; conditions: not reported; mortality
Tagia sp. = conditions: acute; duration: 14 days; mortality
Coturnix coturnix = conditions: mortality; for LD50: acute, oral
Canidae = conditions: subchronic; duration: 90 days; oral; Dog Other; organ weight
Apis mellifera = conditions: acute; duration: 48 hours; dermal; mortality
Daphnia magna = conditions: chronic/long-term, reproduction

`COCCN(C(=O)CCl)c1c(C)cccc1C` [Dimethachlor] showed an LR50 (Aphidius rhopalosiphi) of 91 g/ha, an LC50 (Tagia sp.) of over 70 mg/kg and an LC50 (Oncorhynchus mykiss; acute, duration: 96 hours, mortality) of 3.9 µg/mL (≈ 15.2 µM). The NOEC (Oncorhynchus mykiss; chronic/long-term, duration: 21 days, growth) was 0.85 mg/L, the LD50 (Rattus norvegicus; acute, oral, mortality) was 1600 mg/kg-day and the NOAEL (Rattus norvegicus; chronic, duration: 2 years, body weight) was 11.1 mg/kg-day. For the same compound, the NOEL (Rattus norvegicus; chronic, mortality) was 20 mg/kg-day, the NOAEL (Rattus norvegicus; developmental, development) was 50 mg/kg-day and the LD50 (Coturnix coturnix; diet) was over 1470 mg/kg-day. The LD50 (Coturnix coturnix) was 524 mg/kg-day, the NOEL (Coturnix coturnix; reproduction developmental, duration: 140 days) was 102 mg/kg-day and the NOAEL (Canidae) was 10 mg/kg-day. For the same compound, the LD50 (Apis mellifera) was over 200 µg/piece, the NOEC (Daphnia magna; duration: 21 days) was 0.476 mg/L and the NOEC (Daphnia magna; duration: 22 days) was 2.3 mg/L.
